According to paper PMC7802075 (ACS Infectious Diseases, 2020):
Like-named read-outs stand apart in the source and are kept apart here.

Target: T1, LmjIPCS (inositol phosphorylceramide synthase from L. major) (Leishmania major, UniProt E9AFX2)
T1 sequence (E9AFX2 1-338): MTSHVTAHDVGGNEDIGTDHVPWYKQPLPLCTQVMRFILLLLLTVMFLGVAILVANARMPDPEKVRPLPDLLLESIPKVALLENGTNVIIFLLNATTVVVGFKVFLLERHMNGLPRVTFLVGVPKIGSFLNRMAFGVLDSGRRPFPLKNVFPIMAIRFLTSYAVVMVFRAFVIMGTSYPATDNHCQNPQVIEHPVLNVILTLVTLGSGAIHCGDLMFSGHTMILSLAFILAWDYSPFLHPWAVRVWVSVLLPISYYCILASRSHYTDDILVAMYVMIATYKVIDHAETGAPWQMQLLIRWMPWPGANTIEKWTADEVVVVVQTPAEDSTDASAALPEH
Test: biochemical
Assay type: biochemical
Parameters: inhibition: dose or concentration left out as unconfirmed
Settings: for inhibition: read-out: inhibition LmjIPCS; for inhibition at 20000 µM: read-out: 20mM inhibition LmjIPCS

[1] = screening of NINDS set, sheet Screen 1
[2] = NINDS set screen, single concentration printed as 20mM

**Q.** With `COC(=O)/C(=C1/OC(=O)C(c2ccccc2)=C1O)c1ccccc1` [VULPINIC ACID] as the compound, how does the inhibition (NINDS set screen) read?
**A.** 13%

**Q.** For `CNC(=O)Oc1ccc2c(c1)[C@]1(C)CCN(C)[C@@H]1N2C` [PHYSOSTIGMINE], which inhibition at 20000 µM is on record?
**A.** 15%

**Q.** With `CN(C)CCC(c1ccccc1)c1ccccn1` (stereo not drawn) [PHENIRAMINE] as the compound, how does the inhibition (NINDS set screen) read?
**A.** -1%

**Q.** For `Cc1onc(-c2ccccc2Cl)c1C(=O)N[C@@H]1C(=O)N2[C@@H]1SC(C)(C)[C@@H]2C(=O)O` [CLOXACILLIN], which “20mM inhibition LmjIPCS” value is on record?
**A.** 45%

**Q.** Which inhibition does the source give for `NS(=O)(=O)c1cc2c(cc1Cl)NC(C(Cl)Cl)NS2(=O)=O` (stereo not drawn) [TRICHLORMETHIAZIDE] here?
**A.** 20%

**Q.** `Cc1cc(C)cc(OCC2CNC(=O)O2)c1` (stereo not drawn) [METAXALONE] was tested. Which inhibition (NINDS set screen) did it give?
**A.** -4.75%

**Q.** Which inhibition at 20000 µM does the source give for `NS(=O)(=O)c1cc(C(=O)O)c(NCc2ccco2)cc1Cl` [FUROSEMIDE] here?
**A.** 5%

**Q.** How did the inhibition turn out when `CC(C)N(CCC(C(N)=O)(c1ccccc1)c1ccccn1)C(C)C` (stereo not drawn) [DISOPYRAMIDE] was run?
**A.** 10%

**Q.** How did the inhibition at 20000 µM turn out when `C[C@H](N)[C@H](O)c1ccc(O)c(O)c1` [LEVONORDEFRIN] was run?
**A.** 16%

**Q.** Which “20mM inhibition LmjIPCS” value does the source give for `CNC(Cc1c[nH]c2ccccc12)C(=O)O` (stereo not drawn) [ABRINE (L)] here?
**A.** -1%

**Q.** Which inhibition at 20000 µM does the source give for `c1ccc2c(CC3=NCCN3)cccc2c1` [NAPHAZOLINE] here?
**A.** 28%

**Q.** `CNC[C@H](O)c1ccc(O)c(O)c1.O=C(O)C(O)C(O)C(=O)O` [ADRENALINE BITARTRATE] was tested. Which “20mM inhibition LmjIPCS” value (NINDS set screen, single concentration 20mM as printed) did it give?
**A.** -5.34%

**Q.** With `COC1=CC(=O)C[C@@H](C)[C@]12Oc1c(Cl)c(OC)cc(OC)c1C2=O` [GRISEOFULVIN] as the compound, how does the inhibition read?
**A.** 28%

**Q.** `COc1ccc2cc([C@H](C)CO)ccc2c1` [NAPROXOL] was tested. Which inhibition [1] did it give?
**A.** 4.4%

**Q.** For `COc1ccc2c(c1OC)C(=O)OC2[C@H]1c2cc3c(cc2CCN1C)OCO3` (stereo in doubt) [1R,9S-HYDRASTINE], which inhibition at 20000 µM is on record?
**A.** 10%

**Q.** How did the inhibition at 20000 µM turn out when `CN(C)C(=O)Oc1ccc[n+](C)c1` [PYRIDOSTIGMINE BROMIDE] was run?
**A.** -5.55%

**Q.** How did the inhibition at 20000 µM turn out when `C[C@@H]1O[C@@H](O[C@H]2C[C@@H](O)[C@]3(CO)[C@H]4[C@H](O)C[C@]5(C)[C@@H](C6=CC(=O)OC6)CC[C@]5(O)[C@@H]4CC[C@]3(O)C2)[C@H](O)[C@H](O)[C@H]1O` [OUABAIN] was run?
**A.** 1.15%

**Q.** How did the inhibition turn out when `N[C@@H]1CON=C1O` [CYCLOSERINE] was run?
**A.** -1.4%

**Q.** `Cc1ncc([N+](=O)[O-])n1CCO` [METRONIDAZOLE] was tested. Which inhibition did it give?
**A.** 7%

**Q.** Which “20mM inhibition LmjIPCS” value [2] does the source give for `CCn1cc(C(=O)O)c(=O)c2cc(F)c(N3CCNCC3)nc21` [ENOXACIN] here?
**A.** 56%

**Q.** How did the “20mM inhibition LmjIPCS” value turn out when `CCN(CC)CCOCCOC(=O)C1(c2ccccc2)CCCC1` [CARBETAPENTANE] was run?
**A.** 51%

**Q.** Which inhibition at 20000 µM does the source give for `NC(=O)NC1NC(=O)NC1=O` (stereo not drawn) [ALLANTOIN] here?
**A.** 18%

**Q.** `COc1ccc(/C=C/c2cc(O)cc(O[C@@H]3O[C@H](CO)[C@@H](O)[C@H](O)[C@H]3O)c2)cc1O` [RHAPONTIN] was tested. Which inhibition [1] did it give?
**A.** 3%

**Q.** How did the “20mM inhibition LmjIPCS” value turn out when HECOGENIN was run?
**A.** 23%

**Q.** Which “20mM inhibition LmjIPCS” value does the source give for BENZALKONIUM CHLORIDE here?
**A.** 9%

**Q.** For `CCC1(C)CC(=O)NC1=O` (stereo not drawn) [ETHOSUXIMIDE], which inhibition [1] is on record?
**A.** 6%

**Q.** With `CN(C)CCCO[C@@H]1[C@H]2OC(C)(C)O[C@H]2O[C@@H]1[C@H](O)CO` [AMIPRILOSE] as the compound, how does the inhibition [1] read?
**A.** 4%

**Q.** How did the inhibition turn out when `COc1ccc2[nH]cc(CCNC(C)=O)c2c1` [MELATONIN] was run?
**A.** -5.63%

**Q.** Which inhibition does the source give for `CC1COc2c(N3CCN(C)CC3)c(F)cc3c(=O)c(C(=O)O)cn1c23` (stereo not drawn) [OFLOXACIN] here?
**A.** 5%

**Q.** How did the inhibition turn out when `CC[C@H](C)C(=O)O[C@H]1C[C@H](O)C=C2C=C[C@H](C)[C@H](CC[C@@H](O)C[C@@H](O)CC(=O)O)[C@H]21` [PRAVASTATIN] was run?
**A.** 28%

**Q.** Which inhibition at 20000 µM does the source give for `COc1cc2c(c(OC)c1OC)-c1ccc(=O)c(O)cc1[C@@H](NC(C)=O)CC2` [COLCHICEINE] here?
**A.** 9%

**Q.** For `FC(F)(F)c1cccc(N2CCNCC2)c1`, which “20mM inhibition LmjIPCS” value is on record?
**A.** 54%

**Q.** With `CCCCC1C(=O)N(c2ccccc2)N(c2ccc(O)cc2)C1=O` (stereo not drawn) [OXYPHENBUTAZONE] as the compound, how does the “20mM inhibition LmjIPCS” value read?
**A.** 45%

**Q.** With `CC(C)C[C@H](CN)CC(=O)O` [PREGABALIN] as the compound, how does the inhibition at 20000 µM read?
**A.** 12%

**Q.** How did the inhibition turn out when `C[C@H]1[C@H](C)CC[C@]2(C(=O)O)CC[C@]3(C)C(=CC[C@@H]4[C@@]5(C)C[C@@H](O)[C@H](O)[C@@](C)(CO)[C@@H]5[C@H](O)C[C@]43C)[C@H]12` [MADECASSIC ACID] was run?
**A.** 10%

**Q.** How did the inhibition (NINDS set screen) turn out when `CCCCOC(=O)c1ccc(N)cc1` [BUTAMBEN] was run?
**A.** 14%

**Q.** For `CC(=O)N[C@@H](Cc1c[nH]c2ccccc12)C(=O)O` [ACETYLTRYPTOPHAN], which inhibition at 20000 µM is on record?
**A.** -17%

**Q.** `C=C1[C@@H]2CC[C@H]3[C@]4(C)C[C@H](O[C@@H]5O[C@H](CO)[C@@H](OS(=O)(=O)O)[C@H](OS(=O)(=O)O)[C@H]5OC(=O)CC(C)C)C[C@@H](C(=O)O)[C@H]4CC[C@]3(C2)[C@H]1O` [ATRACTYLOSIDE] was tested. Which inhibition at 20000 µM did it give?
**A.** 18%

**Q.** Which “20mM inhibition LmjIPCS” value does the source give for `COc1cc2c(cc1OC)-c1cc3ccc(OC)c(OC)c3c[n+]1CC2` [PALMATINE] here?
**A.** 8%

**Q.** For `CCN(CC)CCCC(C)Nc1c2ccc(Cl)cc2nc2ccc(OC)cc12` (stereo not drawn) [QUINACRINE], which “20mM inhibition LmjIPCS” value is on record?
**A.** 59%

**Q.** With `CC(C)COCC(CN(Cc1ccccc1)c1ccccc1)N1CCCC1` (stereo not drawn) [BEPRIDIL] as the compound, how does the “20mM inhibition LmjIPCS” value read?
**A.** 61%

**Q.** For `CC1(C)S[C@@H]2[C@H](NC(=O)[C@H](N)c3ccccc3)C(=O)N2[C@H]1C(=O)O` [AMPICILLIN], which inhibition is on record?
**A.** 29%

**Q.** For `COc1ccc2c(c1)CC[C@@H]1[C@@H]2CC[C@]2(C)[C@@H](O)[C@H](O)C[C@@H]12` [ESTRIOL METHYL ETHER], which “20mM inhibition LmjIPCS” value (single concentration 20mM as printed, screening of NINDS set, sheet Screen 1) is on record?
**A.** 8%

**Q.** Which “20mM inhibition LmjIPCS” value does the source give for `CC(C[N+](C)(C)C)OC(N)=O` (stereo not drawn) [BETHANECHOL] here?
**A.** 53%

**Q.** `COc1ccc(C(Cl)=C(c2ccc(OC)cc2)c2ccc(OC)cc2)cc1` [CHLOROTRIANISENE] was tested. Which “20mM inhibition LmjIPCS” value [2] did it give?
**A.** 65%

**Q.** With `CN[C@@H](C)[C@@H](O)c1ccccc1` [PSEUDOEPHEDRINE] as the compound, how does the inhibition at 20000 µM read?
**A.** 2.14%

**Q.** With `CC(C)NCC(O)c1ccc2ccccc2c1` (stereo not drawn) [PRONETALOL] as the compound, how does the “20mM inhibition LmjIPCS” value [2] read?
**A.** 60%

**Q.** With `C#C[C@]1(O)CC[C@H]2[C@@H]3CCC4=C(CCC(=O)C4)[C@H]3CC[C@@]21C` [NORETHYNODREL] as the compound, how does the inhibition at 20000 µM read?
**A.** 21%

**Q.** How did the inhibition at 20000 µM turn out when `CC1(C)S[C@@H]2[C@H](NC(=O)COc3ccccc3)C(=O)N2[C@H]1C(=O)O` [PENICILLIN V] was run?
**A.** 3.31%

**Q.** With `O=C(O)C1=CCCNC1` [GUVACINE] as the compound, how does the inhibition (NINDS set screen) read?
**A.** 14%

**Q.** With `CCOC(=O)C1=C(C)NC(C)=C(C(=O)OC)C1c1cccc([N+](=O)[O-])c1` (stereo not drawn) [NITRENDIPINE] as the compound, how does the “20mM inhibition LmjIPCS” value read?
**A.** 39%

**Q.** For `Oc1cccc2cccnc12` [OXYQUINOLINE], which inhibition at 20000 µM is on record?
**A.** 14%

**Q.** `CCN1CCN(C(=O)N[C@@H](C(=O)N[C@@H]2C(=O)N3[C@@H]2SC(C)(C)[C@@H]3C(=O)O)c2ccccc2)C(=O)C1=O` [PIPERACILLIN] was tested. Which “20mM inhibition LmjIPCS” value did it give?
**A.** 60%

**Q.** For `OCCN1CCN(CCCN2c3ccccc3Sc3ccc(Cl)cc32)CC1` [PERPHENAZINE], which inhibition is on record?
**A.** 0.226%

**Q.** `CN[C@@H]1[C@H](O)[C@H](NC)[C@H]2O[C@@]3(O)C(=O)C[C@@H](C)O[C@H]3O[C@@H]2[C@H]1O` [SPECTINOMYCIN] was tested. Which inhibition at 20000 µM did it give?
**A.** 19%

**Q.** How did the inhibition turn out when `O=C(/C=C/c1ccc(O)cc1)c1ccc(O)cc1O` [ISOLIQUIRITIGENIN] was run?
**A.** 11%

**Q.** `CO[C@H]1C[C@H](O[C@@H]2/C(C)=C/C[C@@H]3C[C@@H](C[C@]4(CC[C@H](C)[C@@H](C5CCCCC5)O4)O3)OC(=O)[C@@H]3C=C(C)/C(=N/O)[C@H]4OC/C(=C\C=C\[C@@H]2C)[C@]43O)O[C@@H](C)[C@@H]1O` [SELAMECTIN] was tested. Which “20mM inhibition LmjIPCS” value did it give?
**A.** 45%

**Q.** `Nc1ccc(S(N)(=O)=O)cc1` [SULFANILAMIDE] was tested. Which inhibition at 20000 µM did it give?
**A.** -1.19%

**Q.** How did the inhibition [1] turn out when `Nc1ccc(C(=O)NCC(=O)O)cc1` [AMINOHIPPURIC ACID] was run?
**A.** 7%

**Q.** `O=C(O)c1cc(/N=N/c2ccc(S(=O)(=O)Nc3ccccn3)cc2)ccc1O` [SULFASALAZINE] was tested. Which inhibition did it give?
**A.** 1.8%
